Assay results reported in publication PMC5418359, “Topical Ophthalmic Formulation of Trichostatin A and SurR9-C84A for Quick Recovery Post-alkali Burn of Corneal Haze” (Frontiers in Pharmacology, 2017).

Columns and labels:
cornea = assay: Mean opacity and mean permeability measurements, rat alkali burn model; type: in vivo; conditions: for Mean in vitro score / Mean opacity measurement: 1 M NaOH 1 min, topical treatment 40 min; for Predicted irritation potential: rat, in vivo
Protocol: The mean in vivo scores was determined using the mean opacity measurements. The rat eyes were excised carefully and carried to the laboratory in HBSS supplemented with penicillin/streptomycin. The measurement of mean opacity was carried out using an opacitometer which measures the transmission of light through the center of each mounted cornea. The mean permeability score was determined by adding a fluorescent (rhodamine solution) on the anterior side of the holder and the corneas were incubated in a horizontal position for 90 min at 32°C. The medium in the posterior chamber was removed and added to 96 well plates and the OD at 490 nm was read. The readings obtained at OD490 were used to determine the permeability of each treatment with respect to the change in the untreated corneas.

[1] = system: conjunctival layer and corneal matrix; assay: H&E histology of corneal segments, rat alkali burn model; type: in vivo; conditions: 1 M NaOH 1 min, topical treatment 40 min
Protocol: After the completion of the study, all tissues that required to be examined (eyes, brain, kidneys, liver, spleen, heart and lungs) were isolated. The cornea was carefully separated from the eye without damaging it and washed using phosphate buffer saline (PBS). Tissues were fixed using 4% paraformaldehyde (PF) overnight at 4°C and then washed in PBS. The tissue segments were dehydrated in graded ethanol, embedded in paraffin and 5–7 μm thick sections were cut using a microtome. Sections were collected on poly-lysine coated slides using the Leica cryostat and were fixed immediately in ice-cold acetone. All the sections were stained for haematoxylin–eosin (H&E) for critical analysis.

corneal lysate = assay: Multianalyte ELISA of inflammatory cytokines in corneal lysate; type: in vivo, rat
Protocol: The cytokine profiling was performed using the Rat Inflammatory Cytokines & Chemokines Multi-Analyte ELISArray Kit (QIAGEN, USA). Briefly, serial dilutions of the Antigen Standard and the experimental samples were prepared. 50 μL of Assay Buffer was added to each well of the 8-well ELISA strips. Fifty microliters samples and/or standards were added to the appropriate wells of the ELISA strips and incubated for 2 h at room temperature. The ELISA strips were further washed using 350 μL 1 × Washing Buffer thrice. Hundred microliters of Detection Antibody solution was added to the ELISA strips and incubated for 1 h at room temperature. ELISA wells were washed as mentioned above. Hundred microliters of the Avidin–HRP solution was added to all wells and incubated for 30 min at room temperature. ELISA wells were washed as mentioned above. Hundred microliters of Development Solution was added to each well and incubated for 15 min at room temperature in the dark. Hundred microliters of Stop Solution was added to each well. The color changed from blue to yellow. The absorbance at 450 nm was measured within 30 min of stopping the reaction. The estimation of pg/mL of cytokines was performed using the values obtained from antigen standards and a graph was plotted for the cytokine expression with the effect of treatments.

[2] = system: expression of survivin, TGF-beta-1, alpha-SMA and collagen IV in alkali burnt cornea; assay: Ex vivo RT-PCR dose ranging in alkali burnt rat eyes; conditions: 1 M NaOH 1 min, treatment 40 min
Protocol: This procedure was carried out using a previously published protocol ([Lin et al., 2016]). Rat eyes were harvested from humanely killed rats and washed with HBSS. Rat eyes were further incubated with 1 M NaOH for 1 min and then treated with TSA ([…]), SurR9-C84A (0.5, 1.2, and 2.5 mg/kg), pSur/As-Sur ([…]) and empty plasmid (200, 400, and 800 μg/kg) for 40 min. Untreated eyes were maintained as controls. After treatment period, eyes were washed with PBS and total RNA was extracted using the TRIzol® reagent (cat# 15596-026, Thermo Fisher Scientific, Waltham, MA, USA), and complementary DNA (cDNA) was synthesized from RNA using the RevertAid H Minus First Strand cDNA Synthesis Kit (cat# K1631, Thermo Fisher Scientific). Expression of survivin, TGF-beta-1, alpha-SMA and collagen IV was determined by polymerase chain reaction (PCR).

[3] = system: rat eyes post-alkali burn
rat corneal tissues = conditions: for clathrin (conjunctival layer) and claudin (corneal layer) expressions, immunofluorescence: post-NaOH insult
Blood analysis = type: in vivo; parameters: HCT / MCH / WBC / RBC / HGB / MCHC: unit not given here; conditions: rat blood; for MCV: in fL (unit assumed)
Protocol: The analysis of blood samples was performed directly using the ABX Micros ES 60 (Horiba Medicals). The parameters analyzed included the number of red blood cells (RBC’s), white blood cells (WBC’s), platelets and hemoglobin content. Briefly, 20 μL of the blood sample was acquired in the instrument and the readings were recorded.

| Molecule | Mean in vitro score (cornea) | Mean opacity measurement (cornea) | Predicted irritation potential (cornea) | corneal tissue integrity (conjunctival layer, corneal matrix), H&E [1] | IL-1 beta expression, ELISA (corneal lysate) | IL-4 expression, ELISA (corneal lysate) | Collagen type IV gene expression, qRT-PCR [3] | IL-1 beta gene expression, qRT-PCR [3] | MMP-2 gene expression, qRT-PCR [3] | TGF-beta-1 gene expression, qRT-PCR [3] | alpha-SMA expression, immunofluorescence (rat corneal tissues; confocal microscopy) | survivin expression, immunofluorescence (rat corneal tissues; confocal microscopy) | clathrin (conjunctival layer) and claudin (corneal layer) expressions, immunofluorescence (rat corneal tissues) | MCHC (Blood analysis) | RBC (Blood analysis) | WBC (Blood analysis) | MCV (Blood analysis) | other results |
| --- | --- | --- | --- | --- | --- | --- | --- | --- | --- | --- | --- | --- | --- | --- | --- | --- | --- | --- |
| SurR9-C84A: dominant negative survivin protein (survivin mutant) | 0.0^∗ | 0.0^∗ | No irritation | recovery of the conjunctival layer | further increase | increase | efficiently downregulated | increase | downregulating | further increase | substantial decrease | increase | more effective than TSA alone | 36.61 ± 1.57 | 8.35 ± 0.99 | 1.3 ± 3.18 | 55.66 ± 1.86 | IL-1 alpha expression, ELISA (corneal lysate): significantly increase; IL-2 expression, ELISA (corneal lysate): significantly increased; most effective dosage in inhibiting expression of survivin, alpha-SMA, TGF-beta-1 and collagen IV [2]: 1.2 mg/kg; Fibronectin-1 gene expression, qRT-PCR [3]: significantly enhanced; alpha-SMA gene expression, qRT-PCR [3]: significant decrease; survivin gene expression, qRT-PCR [3]: significantly increased; downregulation of alpha-SMA, western blot (rat corneal lysates; post-NaOH insult): 6.75 fold; enhancement of Fibronectin-1 expression, western blot (rat corneal lysates; post-NaOH insult): 1.97 fold; increase in TGF-beta-1 expression, western blot (rat corneal lysates; post-NaOH insult): 2.4 fold; increase in survivin expression, western blot (rat corneal lysates; post-NaOH insult): 7.7 fold; HCT (Blood analysis): increased the HCT count to normal range; HGB (Blood analysis): 17.1 ± 1.11; MCH (Blood analysis): reduced to normal range; PLT (Blood analysis): increased; HCT (Blood analysis; listed as NaOH–SurR9-C84A): 46.85 ± 4.14; MCH (Blood analysis; listed as NaOH–SurR9-C84A): 20.36 ± 1.42; PLT (Blood analysis; listed as NaOH–SurR9-C84A): 547.16 ± 130 |
| [Na+].[OH-] [NaOH] | 10.2 ± 0.5^∗∗∗ | 2.5 ± 0.5^∗∗ | Moderate irritation | damage of the conjunctival layer and the corneal matrix | increase | decrease | increase | decreased | increase | increase | substantially enhanced | slightly increased | substantially lowered | 37.51 ± 4.79 | 6.53 ± 2.89 | 3.4 ± 1.19 | 62.5 ± 8.01 | GMCSF expression, ELISA (corneal lysate): enhanced; IFN-gamma expression, ELISA (corneal lysate): upregulated; IL-6 expression, ELISA (corneal lysate): enhanced; IL-10 expression, ELISA (corneal lysate): significant increase; IL-12 expression, ELISA (corneal lysate): decreased; IL-13 expression, ELISA (corneal lysate): enhanced; Rantes expression, ELISA (corneal lysate): upregulated; TNF-alpha expression, ELISA (corneal lysate): enhanced; IL-6 gene expression, qRT-PCR [3]: increased; MMP-9 gene expression, qRT-PCR [3]: lowered; TNF-alpha gene expression, qRT-PCR [3]: increased; alpha-integrin 5 gene expression, qRT-PCR [3]: lowered; collagen type IV expression, immunofluorescence (rat corneal tissues; confocal microscopy): downregulated; increase in alpha-SMA expression, western blot (rat corneal lysates; NaOH insult): 2.7 fold; decrease/downregulation of collagen type IV, western blot (rat corneal lysates; rat, in vivo, iv): 1.1 fold |
